Laboratory results as given in patent US20140378416A1, “SILYL-CONTAINING HETEROCYCLIC COMPOUNDS AND METHODS OF USE THEREOF FOR THE TREATMENT OF VIRAL DISEASES” (priority 2011, published 2014).
Like-named read-outs stand apart in the source and are kept apart here.

Tests used:
[1] = test system: HCV replicon 1b; assay: Cell-based HCV replicon assay (TaqMan), genotype 1b replicon; settings: HCV 1b replicon cells, replicon RNA by TaqMan on day 3, EC90 = concentration for ΔCT=3.2 over baseline
Experimental: (§1) Measurement of inhibition by compounds of the present invention was performed using the HCV replicon system. Several different replicons encoding different HCV genotypes or mutations were used. In addition, potency measurements were made using different formats of the replicon assay, including different ways of measurements and different plating formats. See Jan M. Vrolijk et al., A replicons-based bioassay for the measurement of interferons in patients with chronic hepatitis C, 110 J. VIROLOGICAL METHODS 201 (2003); Steven S. Carroll et al., Inhibition of Hepatitis C Virus RNA Replication by 2′-Modified Nucleoside Analogs, 278(14) J. BIOLOGICAL CHEMISTRY 11979 (2003). However, the underlying principles are common to all of these determinations, and are outlined below.
(§2) Compounds of the present invention were assayed for cell-based anti-HCV activity using the following protocol. Replicon cells were seeded at 5000 cells/well in 96-well collagen I-coated Nunc plates in the presence of the test compound. Various concentrations of test compound, typically in 10 serial 2-fold dilutions, were added to the assay mixture, with the starting concentration ranging from 250 μM to 1 μM. The final concentration of DMSO was 0.5%, fetal bovine serum was 5%, in the assay media. Cells were harvested on day 3 by the addition of 1× cell lysis buffer (Ambion cat #8721). The replicon RNA level was measured using real time PCR (TaqMan® assay). The amplicon was located in 5B. The PCR primers were: 5B.2F, ATGGACAGGCGCCCTGA (SEQ. ID NO. 1); 5B.2R, […] (SEQ. ID NO. 2); the probe sequence was FAM-labeled CACGCCATGCGCTGCGG (SEQ. ID NO. 3). GAPDH RNA was used as endogenous control and was amplified in the same reaction as NS5B (multiplex PCR) using primers and VIC-labeled probe recommended by the manufacturer (PE Applied Biosystem). The real-time […] reactions were run on ABI PRISM 7900HT Sequence Detection System using the following program: 48° C. for 30 minutes, 95° C. for 10 minutes, 40 cycles of 95° C. for 15 sec, 60° C. for 1 minute. The ACT values (CT5B-CTGAPDH) were plotted against the concentration of test compound and fitted to the sigmoid dose-response model using XLfit4 (MDL). EC50 was defined as the concentration of inhibitor necessary to achieve ΔCT=1 over the projected baseline; EC90 the concentration necessary to achieve ΔCT=3.2 over the baseline. Alternatively, to quantitate the absolute amount of replicon RNA, a standard curve was established by including serially diluted T7 transcripts of replicon RNA in the Taqman assay. All TaqMan® reagents were from PE Applied Biosystems. Such an assay procedure was described in detail in e.g. Malcolm et al., Antimicrobial Agents and Chemotherapy 50: 1013-1020 (2006).
(§3) HCV replicon EC50 assay data for various replicons and mutants was calculated for selected compounds of the present invention using this method and is provided in the tables above herein.

[2] = test system: HCV replicon 1a Y93H; assay: Cell-based HCV replicon assay (TaqMan), genotype 1a Y93H mutant replicon; settings: Hepatitis C virus, 72 h, read-out: 1a Y93H EC90, HCV 1a Y93H mutant replicon cells, replicon RNA by TaqMan on day 3; EC90 = concentration for ΔCT=3.2 over baseline
Experimental: as §1, §2, §3

[3] = test system: HCV replicon 1a; assay: Cell-based HCV replicon assay (TaqMan), genotype 1a replicon; settings: HCV 1a replicon cells, replicon RNA by TaqMan on day 3, EC90 = concentration for ΔCT=3.2 over baseline
Experimental: as §1, §2, §3

[4] = test system: HCV replicon 2b; assay: Cell-based HCV replicon assay (TaqMan), genotype 2b replicon; settings: EC90 = concentration for ΔCT=3.2 over baseline
Experimental: as §1, §2, §3

[5] = Hepatitis C virus, 72 h, read-out: 2b EC90, HCV 2b replicon cells, replicon RNA by TaqMan on day 3

SMILES | EC90 ([1]; Hepatitis C virus, 72 h) | EC90 [2] | EC90 ([3]; Hepatitis C virus, 72 h) | EC90 [4, 5] | EC90 [1] | EC90 [3] | EC90 ([4]; read-out: 2b EC90, HCV 2b replicon cells, replicon RNA by TaqMan on day 3)
COC(=O)N[C@H](C(=O)N1C[Si](C)(C)C[C@H]1c1ncc(-c2ccc(-c3ccc(-c4cnc([C@@H]5C[C@H]6C[C@H]6N5C(=O)[C@@H](NC(=O)OC)C(C)C)[nH]4)cc3)cc2)[nH]1)C(C)C [Compound 8] | 0.002 nM | > 100 nM | 0.029 nM | 249 nM | – | – | –
CC[C@H](NC(=O)OC)C(=O)N1CCC[C@H]1c1ncc(-c2ccc(-c3ccc(-c4cnc([C@@H]5C[Si](C)(C)CN5C(=O)[C@H](CC)NC(=O)OC)[nH]4)cc3)cc2)[nH]1 [Compound 12] | 18.1 nM | 694 nM | 0.187 nM | 535 nM | – | – | –
COC(=O)N[C@@H](Cc1ccccc1)C(=O)N1CCC[C@H]1c1ncc(-c2ccc(-c3ccc(-c4cnc([C@@H]5C[Si](C)(C)CN5C(=O)[C@H](Cc5ccccc5)NC(=O)OC)[nH]4)cc3)cc2)[nH]1 [Compound 13] | 923 nM | 1000 nM | 29.8 nM | 1000 nM | – | – | –
CC[C@H](C)[C@H](NC(=O)OC)C(=O)N1CCC[C@H]1c1ncc(-c2ccc(-c3ccc(-c4cnc([C@@H]5C[Si](C)(C)CN5C(=O)[C@@H](NC(=O)OC)[C@@H](C)CC)[nH]4)cc3)cc2)[nH]1 [Compound 14] | – | 1000 nM | – | – | 23.8 nM | 3.22 nM | 1000 nM
CCC[C@H](NC(=O)OC)C(=O)N1CCC[C@H]1c1ncc(-c2ccc(-c3ccc(-c4cnc([C@@H]5C[Si](C)(C)CN5C(=O)[C@H](CCC)NC(=O)OC)[nH]4)cc3)cc2)[nH]1 [Compound 15] | 45.8 nM | 542 nM | 2.43 nM | 515 nM | – | – | –
COC(=O)N[C@H](Cc1c[nH]c2ccccc12)C(=O)N1CCC[C@H]1c1ncc(-c2ccc(-c3ccc(-c4cnc([C@@H]5C[Si](C)(C)CN5C(=O)[C@@H](Cc5c[nH]c6ccccc56)NC(=O)OC)[nH]4)cc3)cc2)[nH]1 [Compound 16] | 1000 nM | 500 nM | 1000 nM | 1000 nM | – | – | –
COC(=O)N[C@@H](Cc1c[nH]c2ccccc12)C(=O)N1CCC[C@H]1c1ncc(-c2ccc(-c3ccc(-c4cnc([C@@H]5C[Si](C)(C)CN5C(=O)[C@H](Cc5c[nH]c6ccccc56)NC(=O)OC)[nH]4)cc3)cc2)[nH]1 [Compound 17] | 1000 nM | 1000 nM | 9.36 nM | 1000 nM | – | – | –
COC(=O)N[C@@H](C)C(=O)N1CCC[C@@H]1c1ncc(-c2ccc(-c3ccc(-c4cnc([C@H]5C[Si](C)(C)CN5C(=O)[C@H](C)NC(=O)OC)[nH]4)cc3)cc2)[nH]1 [Compound 18] | 1000 nM | 1000 nM | 988 nM | 1000 nM | – | – | –
COC(=O)N[C@H](C(=O)N1CCC[C@@H]1c1ncc(-c2ccc(-c3ccc(-c4cnc([C@H]5C[Si](C)(C)CN5C(=O)[C@@H](NC(=O)OC)c5ccccc5)[nH]4)cc3)cc2)[nH]1)c1ccccc1 [Compound 19] | 11 nM | 1000 nM | 25.5 nM | 999 nM | – | – | –
COC(=O)NC1(C(=O)N2CCC[C@@H]2c2ncc(-c3ccc(-c4ccc(-c5cnc([C@H]6C[Si](C)(C)CN6C(=O)C6(NC(=O)OC)CC6)[nH]5)cc4)cc3)[nH]2)CC1 [Compound 20] | 1000 nM | 1000 nM | 1000 nM | 1000 nM | – | – | –
COC(=O)NC1(C(=O)N2CCC[C@H]2c2ncc(-c3ccc(-c4ccc(-c5cnc([C@@H]6C[Si](C)(C)CN6C(=O)C6(NC(=O)OC)CCC6)[nH]5)cc4)cc3)[nH]2)CCC1 [Compound 31] | 2.2 nM | > 1000 nM | – | > 1000 nM | – | – | –
COC(=O)N[C@@H](CSC)C(=O)N1CCC[C@H]1c1ncc(-c2ccc(-c3ccc(-c4cnc([C@@H]5C[Si](C)(C)CN5C(=O)[C@H](CSC)NC(=O)OC)[nH]4)cc3)cc2)[nH]1 [Compound 32] | 0.03 nM | > 1000 nM | – | 144 nM | – | – | –
COC(=O)N[C@H](C(=O)N1CCC[C@H]1c1ncc(-c2ccc(-c3ccc(-c4cnc([C@@H]5C[Si](C)(C)CN5C(=O)[C@@H](NC(=O)OC)C5CCOCC5)[nH]4)cc3)cc2)[nH]1)C1CCOCC1 [Compound 33] | 0.09 nM | 43 nM | – | 7.6 nM | – | – | –
COC(=O)N[C@H](C(=O)N1CCC[C@H]1c1ncc(-c2ccc(-c3ccc(-c4cnc([C@@H]5C[Si](C)(C)CN5C(=O)[C@@H](NC(=O)OC)C(C)(C)OC)[nH]4)cc3)cc2)[nH]1)C(C)(C)OC [Compound 35] | 0.09 nM | > 1000 nM | – | > 1000 nM | – | – | –
COC(=O)N[C@@H](CC(C)(C)C)C(=O)N1CCC[C@H]1c1ncc(-c2ccc(-c3ccc(-c4cnc([C@@H]5C[Si](C)(C)CN5C(=O)[C@H](CC(C)(C)C)NC(=O)OC)[nH]4)cc3)cc2)[nH]1 [Compound 36] | 0.03 nM | 617 nM | – | 434 nM | – | – | –
COC(=O)N[C@@H](CC1CC1)C(=O)N1CCC[C@H]1c1ncc(-c2ccc(-c3ccc(-c4cnc([C@@H]5C[Si](C)(C)CN5C(=O)[C@H](CC5CC5)NC(=O)OC)[nH]4)cc3)cc2)[nH]1 [Compound 37] | 0.03 nM | 425 nM | – | 888 nM | – | – | –
CC[C@@H](O)[C@H](NC(=O)OC)C(=O)N1CCC[C@H]1c1ncc(-c2ccc(-c3ccc(-c4cnc([C@@H]5C[Si](C)(C)CN5C(=O)[C@@H](NC(=O)OC)[C@H](O)CC)[nH]4)cc3)cc2)[nH]1 [Compound 38] | 0.21 nM | > 1000 nM | – | > 1000 nM | – | – | –
COC(=O)N[C@H](C(=O)N1CCC[C@H]1c1ncc(-c2ccc(-c3ccc(-c4cnc([C@@H]5C[Si](C)(C)CN5C(=O)[C@@H](NC(=O)OC)[C@H](O)C(C)C)[nH]4)cc3)cc2)[nH]1)[C@H](O)C(C)C [Compound 39] | 0.03 nM | > 1000 nM | – | 510 nM | – | – | –
COC(=O)N[C@H](C(=O)N1C[Si](C)(C)C[C@H]1c1nc(Cl)c(-c2ccc(-c3ccc(-c4[nH]c([C@@H]5C[C@H]6C[C@H]6N5C(=O)[C@@H](NC(=O)OC)C5CCOCC5)nc4Cl)cc3)cc2)[nH]1)C1CCOCC1 [Compound 54] | – | 2.5 nM | 0.023 nM | 0.48 nM | – | – | –
COC(=O)N[C@H](C(=O)N1C[Si](C)(C)C[C@H]1c1ncc(-c2ccc(-c3ccc(-c4[nH]c([C@@H]5CCCN5C(=O)[C@@H](NC(=O)OC)C(C)C)nc4C4CC4)cc3)cc2)[nH]1)C(C)C [Compound 63] | – | 882 nM | 0.69 nM | 451 nM | – | – | –
COC(=O)N[C@H](C(=O)N1C[Si](C)(C)C[C@H]1c1ncc(-c2ccc(-c3ccc(-c4[nH]c([C@@H]5CCCN5C(=O)[C@@H](NC(=O)OC)C(C)C)nc4Cl)cc3)cc2)[nH]1)C(C)C [Compound 64] | – | 344 nM | 0.17 nM | 99 nM | – | – | –
COC(=O)N[C@H](C(=O)N1C[Si](C)(C)C[C@H]1c1ncc(-c2ccc(-c3ccc(-c4[nH]c([C@@H]5CCCN5C(=O)[C@@H](NC(=O)OC)C5CCOCC5)nc4C4CC4)cc3)cc2)[nH]1)C1CCOCC1 [Compound 66] | – | 88 nM | 0.07 nM | 1.6 nM | – | – | –
C[Si]1(C)C[C@@H](c2ncc(-c3ccc(-c4ccc(-c5[nH]c([C@@H]6CCCN6C(=O)[C@H]6CCCO6)nc5Cl)cc4)cc3)[nH]2)N(C(=O)[C@H]2CCCO2)C1 [Compound 67] | – | 510 nM | 211 nM | > 1000 nM | – | – | –
